From patent publication US20230085362A1, “PYRIMIDINE COMPOUNDS AND USE THEREOF” (National Health Research Institutes, priority 2021, published 2023)
Where two headings read alike, the source gives them in different places.

Legend:
[1] = tested on: Primary DRG cells; assay: Neurite outgrowth assay (group A), paclitaxel-induced neurotoxicity; assay type: cell-based, C57BL/6 J mice; conditions: for neuroprotection against paclitaxel-induced neurotoxicity: 1 µM compound; for activity at 1 µM: Mus musculus, read-out: Neurite outgrowth (%); for Neurite outgrowth (%) A-B (extent of protection): difference between compound 1 µM + paclitaxel 0.05 µM and paclitaxel 0.05 µM alone
Description: Compounds of this invention were evaluated using the neurite outgrowth assay as described in Chen et al., Scientific Reports, 7, 45366, DOI: 10.1038/srep45366 (2017).
(§1) Cell culture. For primary culture, dorsal root ganglia (“DRG”) were removed from 7-weeks-old C57BL/6 J mice and digested with 0.1% collagenase (Sigma-Aldrich, St. Louis, MO) for 1 hour, followed by 0.25% trypsin treatment for 25 minutes. The dissociated neuron cultures were plated at a density of 2.5×10^4 cells per well in a 96 well optics plates (CLS3614; Sigma-Aldrich) precoated with 1 mg/mL poly-D-lysine (A-003-M; Sigma-Aldrich) for 3 hours. Primary DRG cells were grown in DMEM-F12 (11320033; Gibco®, ThermoFisher Scientific, Waltham, MA) supplemented with 10% fetal bovine serum (FBS, 26140079; Gibco®, ThermoFisher). These cells were maintained at 37° C. in an environment containing 5% CO2.
(§2) Neurite outgrowth assay (group A). Primary DRG cells were incubated with one of the Example 2 compounds at 1 µM for 24 hours, and then treated with 0.05 µM paclitaxel for another 24 hours. After the paclitaxel treatment, the primary DRG cells were washed by PBS and then fixed with 4% paraformaldehyde (PFA, P6148; Sigma-Aldrich) for 15 minutes. The DRG cells thus fixed were permeabilized by 0.05% Triton X-100 in PBS for 20 minutes and blocked with 3% bovine serum albumin (BSA; Sigma-Aldrich, USA) at room temperature for 1 hour. Subsequently, DRG cells were stained with rabbit anti-β III tubulin (1:600; Cell Signaling, USA) and mouse anti-NeuN monoclonal antibody (1:400; Millipore, USA) overnight at 4° C. The samples were then washed by PBS and reacted with secondary antibodies (Alexa-488 and Alexa-594 1:600; Invitrogen, CA) at room temperature for 1 hour. For image acquisition and analysis of DRG neurite outgrowth, images of stained cells were automatically acquired using 10X objective by Image Xpress Micro wide field fluorescent microscope (Molecular Devices, USA). A control was obtained following the same procedure except that the DRG cells were not treated with a compound or paclitaxel. Neurite outgrowth was measured as a percentage of outgrowth as compared to the control.
The difference between A and B indicates an extent of protection provided by the compound.

[2] = tested on: Primary DRG cells; assay: Neurite outgrowth assay (group B), oxaliplatin-induced neurotoxicity; assay type: cell-based, C57BL/6 J mice
Description: as §1, §2
Neurite outgrowth assay (group B). Primary DRG cells were incubated with compounds 17, 47, 97, 98, 101, 104 at 1 µM for 24 hours, and then treated with 100 µM oxaliplatin for another 48 hours. The treatment was obtained following the same procedure as group A except that the DRG cells were treated with a oxaliplatin. Neurite outgrowth was measured as a percentage of outgrowth as compared to the control.

[3] = DRG cells, 1 µM compound 24 h then 0.05 µM paclitaxel 24 h, % of untreated control

Compound	neuroprotection against paclitaxel-induced neurotoxicity ([1]; 0.05 µM paclitaxel)	Neurite outgrowth (%) A-B (extent of protection) [1]	activity at 1 µM [1, 3]	also measured
O=C(O)CCN1CCC(Nc2cc(N3CCOCC3)nc(NCc3cn(CC(=O)O)nn3)n2)CC1 [Compound 6]	neuroprotection was provided	3%		activity at 1 µM ([1]; 24 h): 46%
NCCCn1cc(CNc2nc(NC3CCN(C(=O)CCNC(=O)C4(O)CC(O)C(O)C(O)C4)CC3)cc(N3CCOCC3)n2)nn1 (stereo not shown) [Compound 15]	neuroprotection was provided	3%	35%	
CC(C)NCCCn1cc(CNc2nc(NC3CCNCC3)cc(N3CCOCC3)n2)nn1 [Compound 18]	neuroprotection was provided	3%	50%	
COC(=O)c1cccc(CNCCCn2cc(CNc3nc(NC4CCN(Cc5ccccc5)CC4)cc(N4CCOCC4)n3)nn2)c1 [Compound 21]	neuroprotection was provided	3%	45%	
CCCCC(=O)NCCCn1cc(CNc2nc(NC3CCN(CCP(=O)(O)O)CC3)cc(N3CCOCC3)n2)nn1 [Compound 28]	neuroprotection was provided	3%	53%	
OCCCn1cc(CNc2nc(NC3CCNCC3)cc(N3CCCCC3)n2)nn1 [Compound 38]	neuroprotection was provided	5%	37%	
CN1CCN(c2cc(NC3CCNCC3)nc(NCc3cn(CCCO)nn3)n2)CC1 [Compound 41]	neuroprotection was provided	3%	34%	
CN1CCN(c2cc(NCc3cccnc3)nc(NCc3cn(CCCO)nn3)n2)CC1 [Compound 42]	neuroprotection was provided	3%	34%	
COC(=O)CCN1CCC(Nc2cc(N3CCOCC3)nc(NCc3cn(CCCO)nn3)n2)CC1 [Compound 48]	neuroprotection was provided	11%	58%	
CC(O)Cn1cc(CNc2nc(NC3CCNCC3)cc(N3CCOCC3)n2)nn1 (stereo not shown) [Compound 53]	neuroprotection was provided	2%	47%	
CC(C)(O)CCn1cc(CNc2nc(NC3CCN(CCP(=O)(O)O)CC3)cc(N3CCOCC3)n2)nn1 [Compound 60]	neuroprotection was provided	4%	40%	
COCCCn1cc(CNc2nc(NC3CCNCC3)cc(N3CCOCC3)n2)nn1 [Compound 61]	neuroprotection was provided	3%	52%	
COCCCn1cc(CNc2nc(NC3CCN(CCC(=O)OC)CC3)cc(N3CCOCC3)n2)nn1 [Compound 62]	neuroprotection was provided	3%	50%	
COC(=O)CCOCCCn1cc(CNc2nc(NC3CCN(Cc4ccccc4)CC3)cc(N3CCOCC3)n2)nn1 [Compound 65]	neuroprotection was provided			
COC(=O)CCOCCCn1cc(CNc2nc(NC3CCN(CCC(=O)OC)CC3)cc(N3CCOCC3)n2)nn1 [Compound 66]	neuroprotection was provided	5%	52%	
COC(=O)CCOCCCn1cc(CNc2nc(NC3CCN(Cc4cccc(C(=O)OC)c4)CC3)cc(N3CCOCC3)n2)nn1 [Compound 68]	neuroprotection was provided	1%		activity at 1 µM ([1]; 24 h): 41%
COC(=O)CCOCCCn1cc(CNc2nc(NC3CCN(Cc4ccc(C#N)cc4)CC3)cc(N3CCOCC3)n2)nn1 [Compound 72]	neuroprotection was provided	3%	45%	
COC(=O)CCCCC(=O)N1CCC(Nc2cc(N3CCOCC3)nc(NCc3cn(CCCOCCC(=O)OC)nn3)n2)CC1 [Compound 73]	neuroprotection was provided	3%	45%	
CCOC(=O)CNCCC(=O)N1CCC(Nc2cc(N3CCOCC3)nc(NCc3cn(CCCOCCC(=O)OC)nn3)n2)CC1 [Compound 74]	neuroprotection was provided	3%	45%	
COC(=O)CCOCCCn1cc(CNc2nc(NC3CCN(Cc4ccc5ccccc5c4)CC3)cc(N3CCOCC3)n2)nn1 [Compound 75]	neuroprotection was provided			
OCC(CO)Cn1cc(CNc2nc(NC3CCN(Cc4ccccc4)CC3)cc(N3CCOCC3)n2)nn1 [Compound 81]	neuroprotection was provided	2%	52%	
CCn1nnc(CNc2nc(NC3CCN(CCC(=O)OC)CC3)cc(N3CCOCC3)n2)n1 [Compound 100]	neuroprotection was provided	3%	52%	
OCCCn1cc(CNc2cc(NC3CCNCC3)nc(NCc3cn(CCCO)nn3)n2)nn1 [Compound 108]	neuroprotection was provided	9%		activity at 1 µM ([1]; 24 h): 41%
O=P(O)(O)CCN1CCC(Nc2cc(N3CCOCC3)nc(NCc3cn(CCO)nn3)n2)CC1 [Compound 114]	neuroprotection was provided	8%	55%	
O=P(O)(O)CCN1CCC(Nc2cc(N3CCOCC3)nc(NCc3cn(CCCCO)nn3)n2)CC1 [Compound 117]	neuroprotection was provided	11%	58%	
O=P(O)(O)CCN1CCC(Nc2cc(N3CCCCC3)nc(NCc3cn(CCCO)nn3)n2)CC1 [Compound 135]	neuroprotection was provided	6%	56%	
O=P(O)(O)CCN1CCC(Nc2cc(N3CCSCC3)nc(NCc3cn(CCCO)nn3)n2)CC1 [Compound 140]	neuroprotection was provided	4%	54%	
O=P(O)(O)CCN1CCC(Nc2cc(N3CCS(=O)(=O)CC3)nc(NCc3cn(CCCO)nn3)n2)CC1 [Compound 143]	neuroprotection was provided	7%	57%	
O=C1[O][Pt]2([NH][C@@H]3CCCC[C@H]3[NH]2)[O]C1=O [oxaliplatin, reference compound]				neurotoxicity to DRG neurite outgrowth ([2]; 100 µM oxaliplatin 48 h): inhibiting neurite outgrowth; inhibition of DRG neurite outgrowth ([2]; 100 µM oxaliplatin, across experiments of Table 2): 60%-71; Neurite outgrowth (%) ([2]; DRG cells treated with 100 µM oxaliplatin only, % of untreated control, comparator of the compound in the same table row): 29%
CC(=O)O[C@H]1C(=O)[C@@]2(C)[C@H]([C@H](OC(=O)c3ccccc3)[C@]3(O)C[C@H](OC(=O)[C@H](O)[C@@H](NC(=O)c4ccccc4)c4ccccc4)C(C)=C1C3(C)C)[C@]1(OC(C)=O)CO[C@@H]1C[C@@H]2O [paclitaxel, reference compound]				neurotoxicity to DRG neurite outgrowth ([1]; 0.05 µM paclitaxel 24 h): inhibiting neurite outgrowth; inhibition of DRG neurite outgrowth ([1]; 0.05 µM paclitaxel, across experiments of Table 1): 50%-69
